The values below come from patent US20220282217A1, “COMPOSITIONS AND METHODS FOR PREPARING T CELL COMPOSITIONS AND USES THEREOF” (priority 2019, published 2022).

In the assay the target is HLA-A03.01 (Homo sapiens, UniProt P04439). Briefly: Class I MHC peptide binding affinity (displacement of radiolabeled reference peptide). The note with it: allele A03.01; read-out: Observed Affinity (IC50; (nM)).

Where a SMILES comes first, the peptide text is derived from it.

HLA-A03.01, sequence (P04439 25-365): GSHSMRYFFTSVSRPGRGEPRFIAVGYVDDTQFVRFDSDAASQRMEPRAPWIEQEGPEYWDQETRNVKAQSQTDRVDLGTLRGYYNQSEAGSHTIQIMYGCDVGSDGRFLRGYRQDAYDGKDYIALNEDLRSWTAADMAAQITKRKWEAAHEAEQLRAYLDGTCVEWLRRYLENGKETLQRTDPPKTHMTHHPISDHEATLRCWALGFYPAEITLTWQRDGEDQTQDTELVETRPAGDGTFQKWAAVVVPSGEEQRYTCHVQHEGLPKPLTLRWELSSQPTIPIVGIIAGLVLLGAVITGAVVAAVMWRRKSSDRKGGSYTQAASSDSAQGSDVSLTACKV
HLA-A03.01, sequence (P61769 21-119 partner): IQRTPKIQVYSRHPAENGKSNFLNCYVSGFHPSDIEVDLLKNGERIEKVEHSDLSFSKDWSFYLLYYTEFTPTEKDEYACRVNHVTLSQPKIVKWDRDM
Experimental: In brief, MHCI complexes were prepared and bound to radiolabeled reference peptides. Peptides were incubated at varying concentrations with these complexes for 2 days, and the amount of remaining radiolabeled peptide bound to WWI was measured using size exclusion gel-filtration.

`CC(C)C[C@H](N)C(=O)N[C@@H](Cc1ccccc1)C(=O)N[C@@H](Cc1ccccc1)C(=O)N[C@@H](Cc1ccccc1)C(=O)N[C@@H](Cc1ccccc1)C(=O)N[C@@H](Cc1ccccc1)C(=O)N[C@@H](CCC(=O)O)C(=O)N[C@H](C(=O)N[C@@H](CCCCN)C(=O)O)[C@@H](C)O` (H-LFFFFFETK-OH; N-terminus and C-terminus assumed): the half-maximal inhibitory concentration (IC50) stood at 413 nM.
Consider `CSCC[C@H](NC(=O)[C@@H](NC(=O)[C@H](Cc1ccccc1)NC(=O)[C@@H](N)CC(C)C)C(C)C)C(=O)N[C@@H](CO)C(=O)N[C@@H](CC(=O)O)C(=O)N[C@H](C(=O)N[C@H](C(=O)N[C@@H](Cc1ccc(O)cc1)C(=O)N[C@@H](CCCCN)C(=O)O)[C@@H](C)O)[C@@H](C)O` (H-LFVMSDTTYK-OH; N-terminus and C-terminus assumed), for which the half-maximal inhibitory concentration (IC50) came out at 749 nM.
As to `CC(C)C[C@H](NC(=O)[C@@H](N)CC(C)C)C(=O)N[C@H](C(=O)N[C@@H](CO)C(=O)N[C@@H](CO)C(=O)N[C@@H](CO)C(=O)N[C@@H](CCCNC(=N)N)C(=O)N[C@@H](CCC(=O)O)C(=O)N[C@@H](Cc1c[nH]c2ccccc12)C(=O)N[C@@H](CCCCN)C(=O)O)[C@@H](C)O` (H-LLTSSSREWK-OH; N-terminus and C-terminus assumed), the concentration for half-maximal inhibition (IC50) stood at 1770 nM.
The result for `CSCC[C@H](NC(=O)[C@@H](N)CC(C)C)C(=O)N[C@@H](CC(C)C)C(=O)N[C@@H](CC(C)C)C(=O)N[C@@H](CCCNC(=N)N)C(=O)N[C@@H](CC(C)C)C(=O)N[C@@H](CC(N)=O)C(=O)N[C@@H](CC(C)C)C(=O)N[C@@H](CCCNC(=N)N)C(=O)N[C@@H](CCCCN)C(=O)O` (H-LMLLRLNLRK-OH; N-terminus and C-terminus assumed) reads 6 nM; that for `CC(C)C[C@H](NC(=O)[C@H](Cc1ccccc1)NC(=O)[C@H](CO)NC(=O)[C@@H](N)CC(C)C)C(=O)N[C@@H](CO)C(=O)N[C@@H](CO)C(=O)N[C@@H](Cc1c[nH]c2ccccc12)C(=O)N[C@@H](CC(=O)O)C(=O)N[C@@H](Cc1ccc(O)cc1)C(=O)N[C@@H](CCCNC(=N)N)C(=O)O` (H-LSFLSSWDYR-OH; N-terminus and C-terminus assumed), 101 nM; that for `CC(C)C[C@H](N)C(=O)N[C@H](C(=O)N[C@@H](CO)C(=O)N[C@@H](CO)C(=O)N[C@@H](CO)C(=O)N[C@@H](CCCNC(=N)N)C(=O)N[C@@H](CCC(=O)O)C(=O)N[C@@H](Cc1c[nH]c2ccccc12)C(=O)N[C@@H](CCCCN)C(=O)O)[C@@H](C)O` (H-LTSSSREWK-OH; N-terminus and C-terminus assumed), 118 nM.
The result for `CSCC[C@H](N)C(=O)N[C@@H](CC(C)C)C(=O)N[C@@H](CC(C)C)C(=O)N[C@@H](CCCNC(=N)N)C(=O)N[C@@H](CC(C)C)C(=O)N[C@@H](CC(N)=O)C(=O)N[C@@H](CC(C)C)C(=O)N[C@@H](CCCNC(=N)N)C(=O)N[C@@H](CCCCN)C(=O)O` (H-MLLRLNLRK-OH; N-terminus and C-terminus assumed) reads 1.3 nM; that for `CC[C@H](C)[C@H](NC(=O)[C@H](CCCCN)NC(=O)[C@@H](N)CCCNC(=N)N)C(=O)N[C@@H](CO)C(=O)N[C@@H](CC(N)=O)C(=O)N[C@@H](Cc1c[nH]c2ccccc12)C(=O)N[C@@H](CO)C(=O)N[C@@H](CC(C)C)C(=O)N[C@@H](CCCCN)C(=O)N[C@@H](CCCCN)C(=O)O` (H-RKISNWSLKK-OH; N-terminus and C-terminus assumed), 131 nM.
Consider `CSCC[C@H](NC(=O)[C@H](CC(C)C)NC(=O)[C@@H]1CCCN1C(=O)[C@@H](NC(=O)[C@H](CCCCN)NC(=O)[C@H](CCSC)NC(=O)[C@@H](N)CCCNC(=N)N)C(C)C)C(=O)N[C@@H](CCCCN)C(=O)O` (H-RMKVPLMK-OH; N-terminus and C-terminus assumed), for which the 50% inhibitory concentration (IC50) was found to be 33 nM.
To `CC(C)[C@H](NC(=O)[C@@H](N)CCCNC(=N)N)C(=O)N[C@@H](CC(N)=O)C(=O)N[C@H](C(=O)N[C@@H](C)C(=O)N[C@@H](Cc1c[nH]c2ccccc12)C(=O)N[C@@H](CCCCN)C(=O)N[C@H](C(=O)N[C@@H](CCCCN)C(=O)O)[C@@H](C)O)[C@@H](C)O` (H-RVNTAWKTK-OH; N-terminus and C-terminus assumed) belongs 8.6 nM.
